Measurements from patent publication US5116815A, “PF 1022 substance, method of treating helminthic parasitic infection and anthelmintic composition” (Meiji Seika Kaisha Ltd., priority 1989, dated 1992).
Values joined by “and” are separate entries in the source; they are usually repeats but may differ in a detail not shown here. Identical values can stand only once.

How the values were obtained:
[1] = system: bovine twisted stomach worms (Haemonchus contortus); experiment: In vitro test tube motility test on bovine twisted stomach worms; details: physiological salt solution, 39-40 C
Experimental: The PF 1022 substance was evaluated for its anthelmintic activity by adding it to test tubes in which bovine twisted stomach worms (Haemonchus contortus) isolated from the bovine fourth stomach were swimming.
A physiological salt solution was distributed into 4 test tubes and warmed to 39°-40° C. Three to five twisted stomachworms collected from the bovine fourth stomach were put into the medium in each test tube and allowed to swim therein. An appropriate amount of the PF 1022 substance was dissolved in a small amount of dimethyl sulfoxide and the solution was added dropwise to the medium and, after stirring for admixing, the behavior of each worm was observed. The amount of the PF 1022 substance was adjusted so that the final concentrations in the culture medium in three tubes amounted to 2 ppm, 8 ppm and 40 ppm, respectively. Dimethyl sulfoxide alone was added dropwise to the remaining test tube, which served as a control.

[2] = system: hookworms (Ancylostoma caninum); experiment: Anthelmintic effect on canine hookworms; format: in vivo; details: dog, single oral dose 5 mg/kg
Experimental: (§1) The PF 1022 substance was evaluated for its anthelmintic effect in dogs by orally administering it to dogs found to be infected with roundworms (Toxocara canis), hookworms (Ancylostoma caninum) and whipworms (Trichuris vulpisl), respectively, by scatoscopy.
The substance was orally administered once at the dose of 5 mg/kg to a dog infected with the roundworms or hookworms by admixing the substance with a small portion of the ordinary feed, and the worms eliminated and those remaining in the dog during 7 days following administration were counted.

[3] = system: large intestinal roundworms (Ascaridia galli); experiment: Chicken large intestinal roundworm elimination test, single oral dose; format: in vivo; details: chickens; for Mean % Elimination / % Elimination: 7 days; for Mean % Elimination / Mean % body weight gain: group of 3; for % Elimination / % Body weight gain: individual chicken; for Mean % body weight gain / % Body weight gain: after 7 days
Experimental: Chickens verified to be artificially infected with large intestinal roundworms (Ascaridia galli) by scatoscopy were used in groups of three animals. The PF 1022 substance was used at five levels of dose from 0.2 mg/kg to 3 mg/kg. A total of 18 chickens were used in 6 groups, inclusive of an untreated control group.
For administration, an amount of the PF 1022 substance exactly equal to the dose calculated on the basis of the body weight of each chicken was weighed and suspended in water containing carboxymethylcellulose (CMC), and the suspension was administered orally as a single dose using a stomach tube. After administration, the worms eliminated were counted daily for each chicken and, after 7 days, each chicken was sacrificed and autopsied and the worms remaining in the intestinal tract were counted. The percent elimination was calculated as follows: [formula] Furthermore, the body weight just prior to administration and the body weight after 7 days were measured for each chicken and the percent body weight gain was calculated as follows: [formula]

[4] = Ames test; format: cell-based
[5] = system: whipworms (Trichuris vulpisl); experiment: Anthelmintic effect on canine whipworms; format: in vivo; details: dog; for whipworms eliminated / whipworms remaining: 7 days
Experimental: as §1
Thus, the elimination was 100% in both cases. On the other hand, one of two dogs infected with the above-mentioned whipworms was given orally one single dose of 5 mg/kg and the other 10 mg/kg, and the worms eliminated and those remaining uneliminated during 7 days following administration were counted. […] At 10 mg/kg, 22 whipworms were eliminated while none were found remaining uneliminated. Thus, the elimination was 100%.

[6] = Solubility; format: physicochemical
Excerpt: (11) Solubility: Soluble in methanol, ethyl acetate, acetone, chloroform and dimethyl sulfoxide; insoluble in water;

[7] = system: digestive tract nematodes (Haemonchus controtus, Ostertaqia ostertagi, hairworms, cooperids, etc.); experiment: Anthelmintic effect on bovine digestive tract nematodes (EPG); format: in vivo; details: cattle
Experimental: The PF 1022 substance was evaluated for its anthelmintic effect on the so-called digestive tract nematodes parasitizing cattle by orally administering it to three head of cattle found to be infected with such nematodes (Haemonchus controtus, Ostertaqia ostertagi, hairworms, cooperids, etc.) by scatoscopy.
The PF 1022 substance was administered either once at 5 mg/kg or for 2 days once daily at 12.5 mg/kg, in the form of a suspension in water, using a stomach catheter. Parasite eggs in feces (EPG) were counted daily for 3 days before administration and for 7 days following administration.

[8] = single oral dose 0.2 mg/kg, 0.2 mg/kg
[9] = single oral dose 0.5 mg/kg, 0.5 mg/kg
[10] = single oral dose 1 mg/kg, 1 mg/kg
[11] = single oral dose 2 mg/kg, 2 mg/kg
[12] = single oral dose 3 mg/kg, 3 mg/kg

CC(C)C[C@H]1C(=O)O[C@H](Cc2ccccc2)C(=O)N(C)[C@@H](CC(C)C)C(=O)O[C@H](C)C(=O)N(C)[C@@H](CC(C)C)C(=O)O[C@H](Cc2ccccc2)C(=O)N(C)[C@@H](CC(C)C)C(=O)O[C@H](C)C(=O)N1C [PF 1022 substance]
time until the worms stopped moving ([1]; 2 ppm): 25 min | time until the worms stopped moving ([1]; 8 ppm): 15 min | time until the worms stopped moving ([1]; 40 ppm): 10 min | elimination [2]: 100% | hookworms eliminated ([2]; 7 days): Twelve | hookworms remaining ([2]; 7 days): no hookworms were found remaining | Mean % Elimination ([3]; single oral dose 0.2 mg/kg): 18.5% | % Elimination [3, 8]: 12.9% and 16.0% and 26.7% | Mean % body weight gain ([3]; single oral dose 0.2 mg/kg): 9.6% | % Body weight gain [3, 8]: 6.3% and 8.4% and 14.0% | Mean % Elimination ([3]; single oral dose 0.5 mg/kg): 45.4% | % Elimination [3, 9]: 16.4% and 52.1% and 67.7% | Mean % body weight gain ([3]; single oral dose 0.5 mg/kg): 9.2% | % Body weight gain [3, 9]: 8.2% and 11.5% and 7.8% | Mean % Elimination ([3]; single oral dose 1 mg/kg): 74.1% | % Elimination [3, 10]: 60.0% and 76.1% and 86.2% | Mean % body weight gain ([3]; single oral dose 1 mg/kg): 8.7% | % Body weight gain [3, 10]: 8.2% and 6.6% and 11.2% | Mean % Elimination ([3]; single oral dose 2 mg/kg): 84.6% | % Elimination [3, 11]: 82.1% and 93.5% and 78.3% | Mean % body weight gain ([3]; single oral dose 2 mg/kg): 8.9% | % Body weight gain [3, 11]: 7.8% and 10.5% and 8.4% | % Elimination [3, 12]: 100% and 95.5% and 98.3% | % Body weight gain [3, 12]: 11.8% and 9.7% and 8.3% | Ames test result [4]: negative | percent elimination ([5]; single oral dose 5 mg/kg): 39.4% | whipworms eliminated ([5]; single oral dose 5 mg/kg): 327 | whipworms remaining ([5]; single oral dose 5 mg/kg): 504 | elimination ([5]; single oral dose 10 mg/kg): 100% | whipworms eliminated ([5]; single oral dose 10 mg/kg): 22 | whipworms remaining ([5]; single oral dose 10 mg/kg): none | Solubility ([6]; methanol, ethyl acetate, acetone, chloroform and dimethyl sulfoxide): Soluble | Solubility ([6]; water): insoluble | EPG relative to that found before administration ([7]; 2 day administration at 12.5 mg/kg, day after the second day of administration): about half | EPG ([7]; oral 5.0 mg/kg x 1, Day 0 (day of first administration)): 34 | EPG ([7]; oral 5.0 mg/kg x 1, Day 1): 44 | EPG ([7]; oral 5.0 mg/kg x 1, Day 2): 61 | EPG ([7]; oral 5.0 mg/kg x 1, Day 3): 18 | EPG ([7]; oral 5.0 mg/kg x 1, Day 4): 30 | EPG ([7]; oral 5.0 mg/kg x 1, Day 5): 6 | EPG ([7]; oral 5.0 mg/kg x 1, Day 6): 27 | EPG ([7]; oral 5.0 mg/kg x 1, Day 7): 7 | EPG ([7]; oral 5.0 mg/kg x 1, Day -1 (before administration)): 34 | EPG ([7]; oral 5.0 mg/kg x 1, Day -2 (before administration)): 32 | EPG ([7]; oral 5.0 mg/kg x 1, Day -3 (before administration)): 30 | EPG ([7]; oral 12.5 mg/kg x 2, Day 0 (day of first administration), 12.5 mg/kg): 112 and 64 | EPG ([7]; oral 12.5 mg/kg x 2, Day 2, 12.5 mg/kg): 26 and 30 | EPG ([7]; oral 12.5 mg/kg x 2, Day 3, 12.5 mg/kg): 34 and 41 | EPG ([7]; oral 12.5 mg/kg x 2, Day 4, 12.5 mg/kg): 41 and 29 | EPG ([7]; oral 12.5 mg/kg x 2, Day 5, 12.5 mg/kg): 41 and 34 | EPG ([7]; oral 12.5 mg/kg x 2, Day 6, 12.5 mg/kg): 42 and 40 | EPG ([7]; oral 12.5 mg/kg x 2, Day 7, 12.5 mg/kg): 49 and 36 | EPG ([7]; oral 12.5 mg/kg x 2, Day -1 (before administration), 12.5 mg/kg): 109 and 67 | EPG ([7]; oral 12.5 mg/kg x 2, Day -2 (before administration), 12.5 mg/kg): 109 and 58 | EPG ([7]; oral 12.5 mg/kg x 2, Day -3 (before administration), 12.5 mg/kg): 91 and 58
